# From patent US10047105B2, “Gyrase inhibitors” (Merck Sharp & Dohme Corp., priority 2009, dated 2018)
# Tests used:
# [1] = tested on: S. pneumoniae ATCC 51916; assay: MIC, S. pneumoniae; type: cell-based
# [2] = tested on: S. aureus ATCC 13709; assay: MIC, antibacterial potency, S. aureus; type: cell-based
# [3] = S. pneumoniae (Spn52), in µg/mL
SMILES,MIC Spn52 ([1]; S. pneumoniae) [µg/mL],"MIC, SA ([2]; S. aureus) [µg/mL]","MIC Spn52 [1, 3]","MIC, SA ([2]; S. aureus (SA), in µg/mL)"
"CCc1[nH]c2nc(Sc3ccc4cc(C(=O)O)cnc4c3)nc(N3CC[C@@H](N)C3)c2c1Cl [700,705]",> 64,> 64,,
"CCc1[nH]c2nc(Sc3cnc4cccnc4c3)nc(N3CC(C4(N)CC4)C3)c2c1Cl [700,706]",2,1,,
"CCc1[nH]c2nc(Sc3cnc4nccnc4c3)nc(N3CC(C4(N)CC4)C3)c2c1Cl [700,707]",4,2,,
"CCc1[nH]c2nc(Sc3ccc4nc(C)cc(C(=O)O)c4c3)nc(N3CC[C@@H](N)C3)c2c1Cl [700,708, (R)-6-(4-(3-aminopyrrolidin-1-yl)-5-chloro-6-ethyl-7H-pyrrolo[2,3-d]pyrimidin-2-ylthio)-2-methylquinoline-4-carboxylic acid]",> 64,32,,
"CCc1[nH]c2nc(Sc3ccc4nc[nH]c(=O)c4c3)nc(N3CC[C@@H](N)C3)c2c1Cl [700,710]",8,1,,
"CCc1[nH]c2nc(Sc3ccc4c(c3)C(=O)NC4)nc(N3CC[C@@H](N)C3)c2c1Cl [700,711]",8,1,,
"CCc1[nH]c2nc(Sc3cnc4ncc(=O)[nH]c4c3)nc(N3CC[C@@H](N)C3)c2c1Cl [700,712]",> 64,8,,
"CCc1[nH]c2nc(Sc3cnc4cccnc4c3)nc(N3CC(NC)C3)c2c1Cl [700,713]",2,1,,
"CCc1[nH]c2nc(Sc3cnc4nccnc4c3)nc(N3CC(NC)C3)c2c1Cl [700,714]",4,2,,
"CCc1[nH]c2nc(Sc3ccc4cc(C#N)cnc4c3)nc(N3CC[C@@H](N)C3)c2c1Cl [700,715]",1,≤ 0.5,,
"CCc1[nH]c2nc(Sc3ccc4cc(C#N)cnc4c3)nc(N3CC(CN)C3)c2c1Cl [700,716]",2,1,,
"CCc1[nH]c2nc(Sc3ccc4c(N)nc(C)nc4c3)nc(N3CC[C@@H](N)C3)c2c1Cl [700,717]",4,2,,
"CCc1[nH]c2nc(Sc3cnc4c(C#N)cnn4c3)nc(N3CC[C@@H](N)C3)c2c1Cl [700,718]",8,4,,
"CCc1[nH]c2nc(Sc3ccc4ccc(C(=O)O)nc4c3)nc(N3CC[C@@H](N)C3)c2c1Cl [700,719]",> 64,2,,
"CCc1[nH]c2nc(Sc3cnc4nccnc4c3)nc(N3CCC(CN)C3)c2c1Cl.O=C(O)C(F)(F)F (stereo not shown) [700,720]",16,8,,
"CCc1[nH]c2nc(Sc3cnc4nccnc4c3)nc(N3CC4CCCNC4C3)c2c1Cl.O=C(O)C(F)(F)F (stereo not shown) [700,721]",32,32,,
"CCc1[nH]c2nc(Oc3cncnc3)nc(Oc3cncc(C#N)c3)c2c1Cl.O=C(O)C(F)(F)F [700,722]",8,4,,
"CCc1[nH]c2nc(Oc3cncc(C#N)c3)nc(Oc3cncc(C#N)c3)c2c1Cl.O=C(O)C(F)(F)F [700,723]",2,≤ 0.5,,
"CCc1[nH]c2nc(Oc3cncc(C#N)c3)nc(Oc3cncc(C#N)c3)c2c1Br.O=C(O)C(F)(F)F [700,724]",≤ 0.5,≤ 0.5,,
"CCc1[nH]c2nc(Sc3cnc4nccnc4c3)nc(N3CC4[C@H](C3)[C@@]4(N)C(N)=O)c2c1Cl.O=C(O)C(F)(F)F.O=C(O)C(F)(F)F (stereo partly shown) [700,781]",1,≤ 0.5,,
"CCc1[nH]c2nc(Sc3cncnc3)nc(N3CC[C@@H](N)C3)c2c1Cl [700,783]",16,8,,
"CCc1[nH]c2nc(Sc3cncnc3)nc(N3CC4C(N)C4C3)c2c1Cl (stereo not shown) [700,784]",8,2,,
"CCc1[nH]c2nc(Sc3cncnc3)nc(N3CC4CNC4C3)c2c1Cl (stereo not shown) [700,785]",64,16,,
"CCc1[nH]c2nc(Sc3cncnc3)nc(N3CC(CN)C3)c2c1Cl [700,786]",,,32,16
"CCc1[nH]c2nc(Sc3cnc(N)nc3)nc(N3CC[C@@H](N)C3)c2c1Cl [700,788]",,,16,8
"CCc1[nH]c2nc(Sc3cnc(N)nc3)nc(N3CC4C(N)C4C3)c2c1Cl (stereo not shown) [700,789]",,,8,2
"CCc1[nH]c2nc(Sc3cnc(N)nc3)nc(N3CC4CNC4C3)c2c1Cl (stereo not shown) [700,790]",,,64,16

SMILES,MIC Spn52 ([1]; S. pneumoniae) [µg/mL],"MIC, SA ([2]; S. aureus) [µg/mL]","MIC Spn52 [1, 3]","MIC, SA ([2]; S. aureus (SA), in µg/mL)"
"CCc1[nH]c2nc(Sc3cnc4nccnc4c3)nc(N3CCNCC3)c2c1Cl.O=C(O)C(F)(F)F [700,791]",,,16,64
"CCc1[nH]c2nc(Sc3cnc4nccnc4c3)nc(N3CCC(n4c(=O)[nH]c5cc(Cl)ccc54)CC3)c2c1Cl.O=C(O)C(F)(F)F [700,792]",,,>64,>64
"CCc1[nH]c2nc(Oc3cncc(C#N)c3)nc(Oc3cccc(C#N)c3)c2c1Br.O=C(O)C(F)(F)F [700,793]",,,<=0.5,<=0.5
"CCc1[nH]c2nc(Sc3cnc4c(c3)OCCN4C)nc(N3CC(N)C3)c2c1Cl.O=C(O)C(F)(F)F [700,794]",,,32,16
"CCc1[nH]c2nc(Sc3cnc4cccnc4c3)nc(N3CC4CNC4C3)c2c1Cl.O=C(O)C(F)(F)F.O=C(O)C(F)(F)F (stereo not shown) [700,796]",,,1,<=0.5
"CCc1[nH]c2nc(Sc3cnc4c(c3)ncc(=O)n4CCCN3CCCC3=O)nc(N3CC[C@@H](N)C3)c2c1Cl [700,797]",,,>32,>32
"CCc1[nH]c2nc(Sc3cnc4c(c3)ncc(=O)n4CCO)nc(N3CC[C@@H](N)C3)c2c1Cl [700,798]",,,32,16
"CCc1[nH]c2nc(Sc3cnc4c(c3)ncc(=O)n4C3CCNCC3)nc(N3CC[C@@H](N)C3)c2c1Cl [700,799]",,,>64,>64
"CCc1[nH]c2nc(Sc3cnc4cccnc4c3)nc(N3CC4CCNC4C3)c2c1Cl (stereo not shown) [700,801]",,,<=0.5,<=0.5
"CCc1[nH]c2nc(Sc3cncnc3)nc(N3CC4CCNC4C3)c2c1Cl (stereo not shown) [700,802]",,,16,4
"CCc1[nH]c2nc(Sc3cnc(N)nc3)nc(N3CC4CCNC4C3)c2c1Cl (stereo not shown) [700,803]",,,16,8
"CCc1[nH]c2nc(Sc3ccc4ccc(C(=O)O)nc4c3)nc(N3CC(CNC(=O)C4CC4)C3)c2c1Cl [700,804]",,,16,4
"CCc1[nH]c2nc(Sc3ccc4ccc(C(=O)O)nc4c3)nc(N3CC(CNC(=O)c4cn(C)nc4C(F)(F)F)C3)c2c1Cl [700,805]",,,2,<=0.5
"CCc1[nH]c2nc(Sc3ccc4ccc(C(=O)O)nc4c3)nc(N3CC(CNS(C)(=O)=O)C3)c2c1Cl [700,806]",,,16,4
"CCc1[nH]c2nc(Sc3ccc4ccc(C(=O)O)nc4c3)nc(N3CC(NC(=O)C4CC4)C3)c2c1Cl [700,807]",,,8,2
"CCc1[nH]c2nc(Sc3ccc4ccc(C(=O)O)nc4c3)nc(N3CC(NS(C)(=O)=O)C3)c2c1Cl [700,808]",,,64,8
"C#CCOC(=O)NC1CN(c2nc(Sc3ccc4ccc(C(=O)O)nc4c3)nc3[nH]c(CC)c(Cl)c23)C1 [700,809]",,,4,<=0.5
"CCc1[nH]c2nc(Sc3cnc4c(N)nc(CN5CCOCC5)nc4c3)nc(N3CC[C@@H](N)C3)c2c1Cl [700,812]",,,4,4
"CCc1[nH]c2nc(Oc3cncc(C#N)c3)nc(Oc3ccc(OC)c(OC)c3)c2c1Cl [700,813]",,,>64,>64
"CCc1[nH]c2nc(Sc3cnc4nccnc4c3)nc(N3CCCC(CO)C3)c2c1Cl (stereo not shown) [700,814]",,,4,2
"CCc1[nH]c2nc(Sc3cnc4nccnc4c3)nc(N3CCC(CN4CCCC4=O)CC3)c2c1Cl [700,815]",,,2,2
"CCc1[nH]c2nc(Sc3cnc4nccnc4c3)nc(N3C[C@@H]4[C@@H](N)[C@@H]4C3)c2c1Cl [700,816]",,,<=0.5,<=0.5
"CCc1[nH]c2nc(Sc3cnc4cccnc4c3)nc(N3C[C@@H]4[C@@H](N)[C@@H]4C3)c2c1Cl [700,817]",,,<=0.5,<=0.5
"CCc1[nH]c2nc(Sc3ccc(C#N)nc3)nc(N3CC[C@@H](N)C3)c2c1Cl [700,818]",,,8,2
"CCc1[nH]c2nc(Sc3cncc(N)c3)nc(N3CC[C@@H](N)C3)c2c1Cl [700,820]",,,32,16
"CCc1[nH]c2nc(Sc3cncc(O)c3)nc(N3CC[C@@H](N)C3)c2c1Cl [700,821]",,,>64,>64
